The text below walks through data of patent publication US5569598A (Lucky Limited Co., priority 1993, dated 1996).

The test system of data set [1] is aminopeptidase. The experiment in a line: Substrate specificity of the aminopeptidase (paranitroanilide substrates). It counts as biochemical, Streptomyces thermonitrificans. To be noted: substrate 10 mM, 1 unit aminopeptidase, 100 mM Tris buffer pH 8.0, 37° C.; activity to leucine-paranitroanilide as 100%. The text has this:
(§1) Enzymol., 19, 514-521(1970).
The substrate specificity of the aminopeptidase was examined as follows. […] The reaction time was regulated in accordance with the substrate so that paranitroanilide is produced in a fixed rate.

For data set [2], the system named is aminopeptidase. The experiment in a line: Effect of orthophenanthroline on the enzyme activity. To be noted: 37° C., 1 minute, 0 mM = 100. It counts as biochemical, Streptomyces thermonitrificans.
Text: as §1

For data set [3] the following is noted: WHO-supplied reference, literature value; cited from earlier work.

Residues, ends and D or L forms follow the SMILES beside them. *: point of attachment. pNA = O=[N+]([O-])c1ccc(N*)cc1

In the case of `C[C@H](N)C(=O)Nc1ccc([N+](=O)[O-])cc1` [alanine-paranitroanilide], the “Activity(%) of the aminopeptidase according to the substrate” value (from here on “Activity(%) … to the substrate”) in data set [1] is 0.60%.
In the case of `NCC(=O)Nc1ccc([N+](=O)[O-])cc1` [glycine-paranitroanilide], the “Activity(%) … to the substrate” value in data set [1] is on record as 0.04%.
As to `NCC(=O)N[C@@H](Cc1ccccc1)C(=O)Nc1ccc([N+](=O)[O-])cc1` [glycine-phenylalanine-paranitroanilide] (H-Gly-Phe-pNA), in data set [1], the “Activity(%) … to the substrate” value was 0.11%.
Consider `NCC(=O)N1CCC[C@H]1C(=O)Nc1ccc([N+](=O)[O-])cc1` [glycine-proline-paranitroanilide] (H-Gly-Pro-pNA), for which the “Activity(%) … to the substrate” value in data set [1] came to 0.80%.
Consider `CC(C)C[C@H](N)C(=O)Nc1ccc([N+](=O)[O-])cc1` [leucine-paranitroanilide], for which, in data set [1], the “Activity(%) … to the substrate” value is 100%.
As to `NCCCC[C@H](N)C(=O)Nc1ccc([N+](=O)[O-])cc1` [lysine-paranitroanilide], in data set [1], the “Activity(%) … to the substrate” value was 0.03%.
With `CSCC[C@H](N)C(=O)Nc1ccc([N+](=O)[O-])cc1` [methionine-paranitroanilide], in data set [1], the “Activity(%) … to the substrate” value was determined as 3.60%.
Regarding `c1cnc2c(c1)ccc1cccnc12` [orthophenanthroline], the “Activity(%)” value in data set [2] (orthophenanthroline 1 mM) turned out to be 27%; in data set [2] (orthophenanthroline 5 mM), 2%.
Turning to “pituitary gland-derivedhuman growth hormone: pituitary gland-derived human growth hormone supplied by World Health Organization”, in data set [3], the potency is 2.5 IU/mg.
